In patent publication US12552790B2, “Positive modulators of the muscarinic acetylcholine receptor M4” (Vanderbilt University, priority 2023, dated 2026):

Target: T1, Human M2 (Homo sapiens, UniProt P08172)
T1 construct: expressed in transfected cells; host or cells: CHO-K1
T1 sequence (P08172 1-466): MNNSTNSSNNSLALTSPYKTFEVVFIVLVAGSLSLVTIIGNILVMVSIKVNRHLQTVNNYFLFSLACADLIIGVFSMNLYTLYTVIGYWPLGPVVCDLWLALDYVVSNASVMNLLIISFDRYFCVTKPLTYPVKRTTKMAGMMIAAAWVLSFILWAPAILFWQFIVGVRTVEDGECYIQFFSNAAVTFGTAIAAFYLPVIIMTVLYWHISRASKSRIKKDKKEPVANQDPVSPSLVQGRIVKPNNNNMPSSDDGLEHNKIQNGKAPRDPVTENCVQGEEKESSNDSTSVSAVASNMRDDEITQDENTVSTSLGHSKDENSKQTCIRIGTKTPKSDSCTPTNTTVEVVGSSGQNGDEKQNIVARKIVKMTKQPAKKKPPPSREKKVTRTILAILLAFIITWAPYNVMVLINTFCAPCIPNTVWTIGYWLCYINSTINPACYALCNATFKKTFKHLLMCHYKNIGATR
Test: M2 cell-based functional assay, calcium mobilization (selectivity)
Conditions: for Emax at 30 µM: % ACh maximum at 30 μM; for EC50: M2 cell-based functional assay, calcium flux
Procedure, shortened: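 CHO-K1 cells stably expressing receptor, Fluo-4-AM loaded (final 1.15 μM), compound added (140 s) then ACh at EC20 and EC80; Ca flux read at 480/530 nm. Normalized to max ACh response; agonist, PAM (EC20 increase) and antagonist (EC80 decrease) activity fitted by four-parameter logistic for EC50 and Emax.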

| Emax at 30 µM [%] | EC50 [nM] | Compound |
| --- | --- | --- |
| 61 | 658 | [2H]C1([2H])Oc2ccc(OC3CCN(c4nc5c(cc4C)C(=O)NC5)CC3)cc2OC1([2H])[2H] [Compound 3, 2-(4-((2,3-dihydrobenzo[b][1,4]dioxin-6-yl-2,2,3,3-d4)oxy)piperidin-1-yl)-3-methyl-6,7-dihydro-5H-pyrrolo[3,4-b]pyridin-5-one] |
| 68 | 499 | [2H]C1([2H])Oc2ccc(OC3CCN(c4nc5nn(C)c(=O)n5cc4C)CC3)cc2OC1([2H])[2H] [Compound A6, 7-(4-((2,3-dihydrobenzo[b][1,4]dioxin-6-yl-2,2,3,3-d4)oxy)piperidin-1-yl)-2,6-dimethyl-[1,2,4]triazolo[4,3-a]pyrimidin-3(2H)-one] |
| 54 | 1520 | [2H]C1([2H])Oc2ccc(OC3CCN(c4nc5nn(C)c(=O)n5c(C)c4C)CC3)cc2OC1([2H])[2H] [Compound A10, 7-(4-((2,3-dihydrobenzo[b][1,4]dioxin-6-yl-2,2,3,3-d4)oxy)piperidin-1-yl)-2,5,6-trimethyl-[1,2,4]triazolo[4,3-a]pyrimidin-3(2H)-one] |
